From US20080234183A1, “Cell Penetrating Peptides” (priority 2002, published 2008)
Each block holds one substance with its values, some of them ahead of it.

Key:
Gi = molecular target: T1, Gi (Bos taurus, UniProt P63097); assay: GTPase activity of Sf9 membranes overexpressing G-proteins; format: biochemical, bovine; conditions: 100 μM
T1 construct: made in house; host or cells: Sf9 insect cells (baculovirus); membranes used
From the text: (§1) Baculovirus transfer vectors harboring the genes for Gsα, Giα1 and β1γ2 were kindly provided by Dr. Tatsuya Haga (University of Tokyo, Tokyo, Japan). The cDNA for bovine Gsα (21) in pVL1392, bovine Giα1 (22) In pVL1392 and bovine β1γ2 (23) in pVL1393 were cotransfected with linearized baculovirus DNA (Pharmingen, San Diego, Calif., USA), and the resulted virus stocks were subjected to one round of plaque purification before generation of high-titer virus stocks. In the expression procedure, Sf9 cells at density of 2 million cells/ml in suspension culture were Infected with a ratio 2:1 of a versus βγ. Cells were harvested 48 h post-infection, washed in PBS and stored at −70° C. until membrane preparation.
(§2) Frozen pieces of blood vessels were mechanically pulverized. […] Until used, they were kept frozen in the concentration of 1-2 mg protein/ml as determined by the method of Lowry (Lowry, O. H., Rosenbrough, N.Y., Farr, A. L. & Randall, R. J. J. Biol. Chem. 193, 265-275 (1951)). […]
(§3) Incubation medium was standard TE-buffer, pH 7.5. […] Blank values were determined by the replacement of membrane solution with assay buffer. […] The radioactivity of the yielding radioactive phosphate was determined in Packard 3255 liquid scintillation counter.

Gs = molecular target: T2, Gs (Bos taurus, UniProt P04896); assay: as above; format: biochemical, bovine; conditions: 100 μM
T2 construct: made in house; host or cells: Sf9 insect cells (baculovirus); membranes used
From the text: as §1, §2, §3

Go = molecular target: T3, Go (Homo sapiens, UniProt P09471); assay: as above; format: biochemical; conditions: 100 μM
T3 construct: made in house; host or cells: Sf9 insect cells (baculovirus); membranes used

great cardiac vein = assay: Blood vessel contraction measurement; set-up: species or system porcine
Method: (§4) Dissected porcine hearts (260-390 g) were transported from local slaughterhouse to the laboratory in ice-cold Krebs-Henseleit solution (119 mM NaCl, 23.8 mM NaHCO3, 3 mM KCl, 1.14 mM NaH2PO4, 1.63 mM CaCl2, and 16.5 mM glucose). Left anterior descending coronary artery and great cardiac vein were isolated. Part of each blood vessel was used immediately after Isolation for contraction assays while part of it was kept frozen in liquid nitrogen for the membrane preparation. In some experiments blood vessels in which endothelium was mechanically removed were used. The same procedure was used also for the preparation of human umbilical blood vessels; umbilical cords were obtained from Obstetric Clinic of Ljubljana Clinical Center, Slovenia.
(§5) The measurements were performed as already described (20). Rings (5 mm wide) of blood vessels were cut and mounted into 10 ml tissue chamber filled with Krebs-Henseleit solution (37° C.; pH=7.4) which was oxygenated with the mixture of ^95% O2 and 5% CO2. Initial tension of 50 mN was applied and after equilibration 30 mM KCl was added to obtain stable Isometric contraction. The presence of endothelium was verified with substance P. After washing out of KCl and substance P and after the equilibration of the system was restored, test peptide was added into the tissue chamber and blood vessel contraction was recorded.

G11 = molecular target: T4, G11 (Homo sapiens, UniProt P29992); assay: GTPase activity of Sf9 membranes overexpressing G-proteins; format: biochemical; conditions: 100 μM
T4 construct: made in house; host or cells: Sf9 insect cells (baculovirus); membranes used
T4 sequence (P29992 1-359): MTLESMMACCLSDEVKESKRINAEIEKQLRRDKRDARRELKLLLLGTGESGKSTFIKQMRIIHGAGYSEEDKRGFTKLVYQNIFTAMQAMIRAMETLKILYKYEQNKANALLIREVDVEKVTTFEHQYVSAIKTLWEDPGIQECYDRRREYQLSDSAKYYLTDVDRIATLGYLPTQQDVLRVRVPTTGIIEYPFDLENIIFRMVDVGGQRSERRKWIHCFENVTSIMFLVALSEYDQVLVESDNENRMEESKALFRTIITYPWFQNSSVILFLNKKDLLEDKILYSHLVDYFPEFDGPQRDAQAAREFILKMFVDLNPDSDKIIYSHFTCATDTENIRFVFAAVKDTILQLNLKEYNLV

[1] = system: porcine left anterior descending coronary artery; assay: Blood vessel contraction measurement
Method: as §4, §5

human umbilical artery = assay: Blood vessel contraction measurement
Method: as §4, §5

[2] = system: G-proteins from blood vessel membranes; assay: Rate of GTPγS binding to blood vessel membranes; format: biochemical; conditions: membranes from porcine left anterior descending coronary artery
Method: Frozen pieces of blood vessels were mechanically pulverized. Subsequently membranes were obtained according to the protocol of McKenzie (McKenzie, F. R. Signal Transduction (Milliqan, E., Ed.), Oxford University Press, Oxford, N.Y., Tokyo. (1992)) with minor modifications. Until used, they were kept frozen in the concentration of 1-2 mg protein/ml as determined by the method of Lowry (Lowry, O. H., Rosenbrough, N.Y., Farr, A. L. & Randall, R. J. J. Biol. Chem. 193, 265-275 (1951)). The same procedure (with the exception of pulverization of tissue) was used also for the preparation of membranes from Sf9 cells which overexpressed the G-proteins of different types; protein concentrations of these membrane preparations were between 0.2 and 0.4 mg/ml.
The binding to G-proteins from blood vessel membranes was followed as described by McKenzie (McKenzie, F. R. Signal Transduction (Milligan, E., Ed.), Oxford University Press, Oxford, N.Y., Tokyo. (1992)). Briefly, the membranes (final protein concentration in the assay mixture was 0.05 mg/ml) were incubated for 3 min in the absence and presence of peptides in different concentrations with 0.5 nM [^35S]GTPγS at 13° C. […] The remaining radioactivity contained in the filters was determined in the LKB 1214 Rackbeta liquid scintillation counter. Blank values were determined by replacing the membrane preparations with buffer.

[3] = system: N2A mouse neuroblastoma cells; assay: Cellular internalisation assay of fluorescein-labelled APP and PS peptides; format: cell-based; conditions: 10 μM, 37°
Method: Mouse neuroblastoma cells, N2A, were cultivated in Dulbecco's minimal essential medium with Glutamax-I, supplemented with 10% (v/v) fetal bovine serum, penicillin (100 U/ml) and streptomycin (100 μg/ml).
The cells used for Internalisation were seeded out on round glass coverslips in 24well plates. One day post seeding, the cells were semi confluent, and the medium was changed to serum-free medium. The fluorescein-labelled peptides were added, with a final concentration of 10 μM. After 60 min of incubation at 37°, the cells were washed 3 times with 1 ml of Hepes-Krebbs-Ringer-(HKR) buffer and fixed with 3% paraformaldehyde solution in phosphate-buffered saline solution (PBS) for 10 minutes. The cells were then washed 3 times with 1 ml of HKR-buffer, and the coverslips were mounted and sealed for microscopy studies.
The cell type used for the internalisation assays with the fluorescein'tagged peptides was N2A mouse neuroblastoma cells. This cell-line is commonly used in association with Alzheimer's disease studies, and serves as a good model cell-line for these internalisation assays where peptides derived from proteins involved in Alzheimer's disease were examined. These Internalisation assays were performed at 37° C., therefore the internalisation by endocytosis cannot be excluded.

[4] = system: N2A mouse neuroblastoma cells; assay: as above; format: cell-based
Porcine coronary artery = assay: Effect of M630 on porcine coronary artery
Method: CGRP receptor loop iC4, sequence 391-405 ([…]) was synthesised and tested at blood vessels as described for the ATLAR loop previously.
Porcine coronary artery was contracted by using KCl. After relaxation of the artery by washing, 50 μM M630 was applied. Contraction started after approximately 10 min and reached maximum in 15 to 20 min after application. […] The effect was reproducible and always very clearly observed. The lag-period of 10 min could be the time needed for the penetration of M630 into the cells.

N2a cells = assay: Cellular internalisation of M630 conjugated to fluorescein; format: cell-based; conditions: 5 μM, 1 h, 37° C.
Method: FIG. 42. Cellular internalisation of M630 conjugated to fluorescein in N2a cells, visualised by confocal microscope. The cells were incubated for 1 h at 37° C. with a final peptide concentration of 5 μM.

Bowes and Caco-2 = assay: PenMMP14 uptake in cells expressing MMP14; format: cell-based, human
From the text: FIG. 24. Another example of an Inactivated selCPP. PenMMP14 uptake in Bowes (A) and B)) and Caco-2 (C) and D)). The left column is uptake of fluorescein labelled peptide (A) and C)) and the […] with coumarine label (B) and D)).

YTA-2ps = system: T5, YTA-2ps
T5 sequence: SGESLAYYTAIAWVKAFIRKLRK

T2 sequence (P04896 whole entry): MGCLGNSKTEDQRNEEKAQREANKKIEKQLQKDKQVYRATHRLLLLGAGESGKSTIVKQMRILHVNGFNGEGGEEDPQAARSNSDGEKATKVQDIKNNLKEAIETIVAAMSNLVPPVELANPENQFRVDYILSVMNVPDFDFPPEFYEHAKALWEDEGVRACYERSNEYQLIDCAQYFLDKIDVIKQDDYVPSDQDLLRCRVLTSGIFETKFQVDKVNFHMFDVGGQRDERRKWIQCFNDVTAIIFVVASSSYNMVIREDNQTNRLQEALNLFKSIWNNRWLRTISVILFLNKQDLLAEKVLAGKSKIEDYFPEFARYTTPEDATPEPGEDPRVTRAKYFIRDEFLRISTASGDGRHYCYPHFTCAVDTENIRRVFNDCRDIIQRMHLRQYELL
T1 sequence (P63097 2-354 limits assumed): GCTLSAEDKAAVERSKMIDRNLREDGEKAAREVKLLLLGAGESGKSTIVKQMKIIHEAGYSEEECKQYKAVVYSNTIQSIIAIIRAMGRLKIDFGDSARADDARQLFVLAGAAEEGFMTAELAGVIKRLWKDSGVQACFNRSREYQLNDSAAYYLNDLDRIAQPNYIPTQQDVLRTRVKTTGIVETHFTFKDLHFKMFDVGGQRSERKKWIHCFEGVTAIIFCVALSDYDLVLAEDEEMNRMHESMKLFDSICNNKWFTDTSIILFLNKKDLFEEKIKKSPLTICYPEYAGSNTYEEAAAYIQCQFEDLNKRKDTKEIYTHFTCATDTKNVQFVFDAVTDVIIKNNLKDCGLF
T3 sequence (P09471 whole entry): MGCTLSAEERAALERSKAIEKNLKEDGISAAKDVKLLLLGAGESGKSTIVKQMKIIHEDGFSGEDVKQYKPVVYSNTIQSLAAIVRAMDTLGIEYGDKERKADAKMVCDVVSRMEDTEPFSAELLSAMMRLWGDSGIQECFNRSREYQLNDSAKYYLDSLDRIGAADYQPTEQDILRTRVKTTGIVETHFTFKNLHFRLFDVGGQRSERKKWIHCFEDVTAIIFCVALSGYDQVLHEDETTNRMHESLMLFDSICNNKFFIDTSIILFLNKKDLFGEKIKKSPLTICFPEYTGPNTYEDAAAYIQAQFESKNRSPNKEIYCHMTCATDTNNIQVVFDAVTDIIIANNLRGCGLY

GTPase activity (Gi): small but significant activation
GTPase activity (Gs): seems not to be affected
GTPase activity (Go): small but significant activation
GTPase activity (G11): moderate inhibition
rate of binding of GTPγS [2]: dose-dependently increased
Substance: FLGKKFKKYFLQLLK [Peptide M511]
blood vessel contraction compared with porcine artery (great cardiac vein): Virtually Identical effect
termination of contraction by washing [1]: could not be terminated by washing
blood vessel contraction ([1]; 16 μM): intense and long-lasting contraction
strength of contraction as % of maximal effect of potassium ion ([1]; 16 μM, comparable to 30 mM K+): approximately 50%
contraction force higher than that induced by 30 mM KCl ([1]; 100 mM M511 (so in the source)): about 40%
blood vessel contraction compared with porcine artery (human umbilical artery): Virtually Identical effect

rate of binding of GTPγS [2]: not active
Substance: KGKFQLYLKLKFKFL [Scrambled M511]
blood vessel contraction ([1]; 16 μM): did not cause any contraction

Substance: KKKQYTSIHHGVVEVD [APP (725-740)]
cellular localisation [3]: mostly to the cytosol
cellular internalisation ([3]; 60 min): increased fluorescence compared to the background
internalisation at 4° C. [4]: not internalised

Substance: VQAILRRNWNQYKIQ [Peptide M630]
effect on the contracted arteries (Porcine coronary artery): no effect
reversal of contraction by washing (Porcine coronary artery; 50 μM): Washing did not reverse the contraction
time to start of contraction (Porcine coronary artery; 50 μM): approximately 10 min
cell membrane penetration (N2a cells): penetrates cell membranes by a non-endocytotic mechanism

Substance: coum-DEEQERSEN-IRQIKIWFQNRRMKWK*K-amide [SelCPP2]
cellular uptake (Bowes and Caco-2): taken up in cells expressing MMP14

Substance: matrix metallo proteinase-2 (MMP-2)
cleavage of the peptide by the protease, checked by mass spectrometry (YTA-2ps): The correct cleavage of YTA-2 by MMP2 has also be confirmed by mass spectrometry (data not shown)
